Tests used:
[1] = test system: MMP1 expression from activated SFs (RASF); test: MMP assay: MMP1 expression (ELISA) by TNF-α-triggered RASFs; type: cell-based; details: RASF triggered with TNFα, MMP1 ELISA after 48 hrs, semi-quantitative score
In short: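 Rheumatoid arthritis synovial fibroblasts (passage 10–12) were preincubated 90 min with compound in M199 with 1% FBS, then stimulated with TNF-α (10 ng/mL final) or complex trigger (12.5% final) for 48 h. MMP1 in the supernatant was quantified by sandwich luminescence ELISA. Controls were stimulated cells with 0.2% DMSO vehicle and unstimulated cells.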

TAK1-TAB1 fusion protein = target: T1, TAK1-TAB1 fusion protein (Homo sapiens, UniProt O43318); test: In vitro TAK1 kinase assay (33P-ATP, casein substrate); type: biochemical; details: semi-quantitative score, at least two independent experiments
T1 construct: purchased Upstate 14-600
T1 sequence (O43318 with tags, fused parts or gaps limits assumed): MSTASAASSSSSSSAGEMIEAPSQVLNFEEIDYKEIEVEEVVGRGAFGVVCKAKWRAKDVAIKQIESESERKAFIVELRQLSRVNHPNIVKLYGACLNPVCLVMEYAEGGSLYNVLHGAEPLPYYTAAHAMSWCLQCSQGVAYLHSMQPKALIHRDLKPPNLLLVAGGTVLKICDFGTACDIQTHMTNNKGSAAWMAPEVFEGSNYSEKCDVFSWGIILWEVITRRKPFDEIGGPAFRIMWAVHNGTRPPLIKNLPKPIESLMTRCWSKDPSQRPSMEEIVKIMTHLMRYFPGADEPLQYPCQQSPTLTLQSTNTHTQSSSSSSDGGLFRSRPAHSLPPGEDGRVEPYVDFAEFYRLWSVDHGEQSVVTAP
In short: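 Radiometric assay with active TAK1-TAB1 fusion protein (0.5 mU), 0.1 mg/mL casein, ATP at 5 µM plus [33P]-γ-ATP, in 10 mM MOPS pH 7.0, 1 mM EDTA. Reactions ran 90 min at 30 °C, were stopped with phosphoric acid and filter-counted; percent inhibition from ≥2 experiments gave semi-quantitative potency scores.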

[2] = test system: MMP1 expression by complex trigger activated SFs; test: MMP assay: MMP1 expression (ELISA) by SFs activated with the 'complex trigger'; type: cell-based; details: Homo sapiens; SFs activated with supernatant of TNF-α-treated THP-1 cells (complex trigger), 48 hrs, FIG. 3; read-out: IC50 of reduction of MMP1 expression by SFs
Description: A 384-well format ELISA for measurement of MMP1 is developed. Various primary antibodies are tested, as well as various ELISA protocols. The following protocol is developed and validated to measure MMP1 levels in SF supernatant in 384 well plates: white Lumitrac 600 384 well plates (Greiner) are coated with 2 μg/mL anti-MMP1 antibody MAB1346 (Chemicon). The antibody is diluted in buffer 40 (1.21 g Tris base (Sigma), 0.58 g NaCl (Calbiochem) and 5 mL 10% NaN3 (Sigma) in 1 L milliQ water and adjusted to pH 8.5). After overnight incubation at 4° C., plates are washed with PBS (80 g NaCl, 2 g KCl (Sigma), 11.5 g Na2HPO4.7H2O and 2 g KH2PO4 in 10 L milliQ; pH 7.4) and blocked with 100 μL/well Casein buffer (2% Casein (VWR International) in PBS). Next day, casein buffer is removed from ELISA plates and replaced by 50 μL/well EC buffer (4 g casein, 2.13 g Na2HPO4 (Sigma), 2 g bovine albumin (Sigma), 0.69 g NaH2PO4.H2O (Sigma), 0.5 g CHAPS (Roche), 23.3 g NaCl, 4 mL 0.5 M EDTA pH 8 (Invitrogen), 5 mL 10% NaN3 in 1 L milliQ and adjusted to pH 7.0). 0.25 mM DTT (Sigma) is added to the thawed sample plates. After removal of the EC buffer, 20 μL of sample is transferred to the ELISA plates. […] Readout is performed on the Luminoscan Ascent Luminometer (Labsystems) with an integration time of 200 msec or with an Envision reader (Perkin Elmer). […]

For `O=c1cc(-c2ccc(Nc3ccc(N4CCC(N5CCCCC5)CC4)cc3)c3nccn23)cc[nH]1` [Compound 120, 4-[8-(4-[1,4′]Bipiperidinyl-1′-yl-phenylamino)-imidazo[1,2a]pyridi-5-yl]-1H-pyridin-2-one], which EC50 [1] is on record?
The EC50 was 0.101 to 1 µM.

What about the IC50 (TAK1-TAB1 fusion protein) of the same compound?
Its IC50 is 0.101 to 1 µM.

How did the EC50 [1] turn out when `CC1CN(c2ccc(Nc3ccc(-c4cc[nH]c(=O)c4)n4ccnc34)cc2)CC(C)N1` (centres unmarked) [Compound 124, 4-{8-[4-(3,5-Dimethyl-piperazin-1-yl)-phenylamino]-imidazo[1,2-a]pyridin-5-yl}-1H-pyridin-2-one] was run?
The EC50 was 1 to 3 µM.

What about the IC50 (TAK1-TAB1 fusion protein) of the same compound?
The IC50 was 0.101 to 1 µM.

How did the IC50 [2] turn out when `C[C@@H]1C[C@H]2[C@@H]3CCC4=CC(=O)C=C[C@]4(C)[C@@]3(F)[C@@H](O)C[C@]2(C)[C@@]1(O)C(=O)CO` [dexamethasone] was run?
The IC50 was ~0.001 µM.
